Test results taken from patent US12209112B2, “Methods of preventing or treating diseases, conditions, or disorders associated with chemotherapy” (The Chinese University of Hong Kong, priority 2022, dated 2025).
Where two headings read alike, the source gives them in different places.

Key:
hESC-CMs [1] = assay: Nuclear condensation by Hoechst 33342 stain (cardiomyocyte apoptosis); format: cell-based, human
Protocol: To evaluate mitochondrial morphology as a surrogate of cell and mitochondrial viability, hESC-CMs were incubated in B27+/RPMI−1640 media containing 50 nmol/L MitoTracker Deep Red (MTDR) (Thermo Fisher Scientific, USA), and 1 μg/ml Hoechst 33342 (Thermo Fisher Scientific, USA) for 20 minutes. Microscopic images were acquired using DMi8s Research Inverted Thunder Imager Live Cell System (Leica, Germany). For MTDR and Hoechst 33342 imaging, excitation wavelengths of […] and 480 nm, respectively, were used. Mitochondrial morphology was classified into three categories: i) elongated, ii) punctate, and iii) perinuclear. Nuclear morphology was classified as either condensed or normal.

hESC-CMs [2] = assay: Real-time PCR of genes important for mitochondrial function; format: cell-based, human
Protocol: RNA was extracted using TRIzol™ Reagent (Thermo Fisher Scientific, USA) as per manufacturer's protocol. RNase-free reagents and consumables were used. RNA concentration and A260/280 ratio were determined using Synergy HTX Multi-Mode microplate reader (Agilent Technologies, USA).
cDNA was synthesized using the PrimeScript™ RT Master Mix (Takara, Japan) for real-time quantitative polymerase chain reaction (qPCR). Briefly, reverse transcription used 2 μl of 5× PrimeScript™ RT Master Mix, 0.5 μg of total RNA, and RNase-free dH2O added to total mixture volume of 10 μl. The reaction was carried out at 37° C. for 15 minutes and 85° C. for 5 seconds.
qPCR was performed using SYBR Green Master Mix (Promega, USA) as per manufacturer's protocol. A total reaction volume of 10 μl included 5 μl GoTaq® qPCR Master Mix 2×, 0.3 μl 10 nmol/L primers mix, and 30 ng cDNA template. The qPCR condition was: 1 cycle of 95° C. for 2 minutes, 40 cycles of 95° C. for 3 seconds, and 60° C. for 30 seconds. Expression level of genes was quantified using the 2^−ΔΔCT method on a ABI QuantStudio 12-Flex QPCR System W/96 Fast & 384 (Thermo Fisher Scientific, USA). Primer sequences used were summarized as follows for the respective gene sequences (Table 2).

C57BL/6J male mice [3] = details: mouse, in vivo
Protocol: (§1) Recombinant human GDF15/MIC-1 protein (CHO-derived) was purchased from PeproTech Inc. (Cranbury, USA) and described in Example 1. […] For in vitro studies, solid lyophilized powder of these two drugs were solubilized at the recommended concentrations in sterile water, and separate aliquots were made and frozen until thawing prior to addition to cell cultures. For in vivo studies, all agents were dissolved in […] normal saline according to the required concentrations (doxorubicin, 5 mg/kg; GDF15, 0.5 mg/kg; dexrazoxane, […]), and the final volume of each intraperitoneal injection was 100 μl. The recommended dose ratio of dexrazoxane to doxorubicin was 10 to 1. In the following examples, 5 mg/kg of doxorubicin was used which correspond to 50 mg/kg of dexrazoxane. The FDA recommends that dexrazoxane be injected within 0.5 hour prior to doxorubicin infusion in individuals. This was followed in the same manner when applying to the test animals.
The body weight of each mouse was recorded weekly, before each doxorubicin injection and before sacrifice. At the end of experiment, all mice were euthanized with sodium pentobarbital 100 mg/kg administered intraperitoneally, and the hearts were excised immediately. The tibia of the mice were carefully dissected and its length was measured. […]

C57BL/6J male mice [4] = format: in vivo, mouse
Protocol: as §1
To induce cardiotoxicity in the mouse, four weekly intraperitoneal injections of doxorubicin at 5 mg/kg were administered. After one dose of doxorubicin at 5-6 mg/kg in a mouse, the level of exposure has been estimated to be similar to that of a human individual being given a standard dose of doxorubicin at approximately 60 mg/m^2. Previous studies have shown that mice injected with doxorubicin once a week at 5 mg/kg for four weeks developed cardiotoxicity, as evidenced by decreased ventricular ejection fraction, cardiomyocyte apoptosis, histopathological changes consistent with doxorubicin-induced myocardial damage, and increased mortality rate, compared with the control group.
The hearts of mice were collected after sacrifice and fixed in 4% paraformaldehyde overnight, followed by paraffin embedding. Afterwards the hearts were cut into 4 μm thick slices. Sections were deparaffinized and rehydrated using sequential immersion in 100% alcohol, 95% alcohol and 70% alcohol for 15 minutes each. […]

[5] = cancer survivors exposed to >250 mg/m2 doxorubicin vs. non-exposed; cited from earlier work
C57BL/6J male mice [6] = assay: TUNEL staining of mouse myocardium (cardiomyocyte apoptosis); format: in vivo; details: pretreatment before doxorubicin
Protocol: as §1
To induce cardiotoxicity in the mouse, four weekly intraperitoneal injections of doxorubicin at 5 mg/kg were administered. After one dose of doxorubicin at 5-6 mg/kg in a mouse, the level of exposure has been estimated to be similar to that of a human individual being given a standard dose of doxorubicin at approximately 60 mg/m^2. […]

| Compound | hESC-CMs displaying nuclear condensation (hESC-CMs [1]; doxorubicin-treated, no pretreatment) | expression of genes important for mitochondrial function (hESC-CMs [2]; hESC-CMs, doxorubicin alone) | heart weight-to-tibia length ratio (C57BL/6J male mice [3]) | myocardial histopathology (hematoxylin and eosin) (C57BL/6J male mice [4]; mouse, in vivo) | hazard ratio for developing heart failure [5] | extent of nuclear condensation compared with dexrazoxane (hESC-CMs [1]; hESC-CMs, pretreatment in the presence of Dox) | hESC-CMs displaying nuclear condensation (hESC-CMs [1]; pretreated with 300 ng/ml GDF15, then doxorubicin) | expression of genes important for mitochondrial function (hESC-CMs [2]; hESC-CMs pretreated with GDF15 prior to doxorubicin exposure) | myocardial histopathology (hematoxylin and eosin) (C57BL/6J male mice [4]; mice, pretreatment before doxorubicin) | cardiomyocyte death by apoptosis (TUNEL staining) (C57BL/6J male mice [6]) |
| --- | --- | --- | --- | --- | --- | --- | --- | --- | --- | --- |
| COc1cccc2c1C(=O)c1c(O)c3c(c(O)c1C2=O)C[C@@](O)(C(=O)CO)C[C@@H]3OC1C[C@H](N)[C@H](O)[C@H](C)O1.Cl (stereo partly drawn) [Dox, (8S,10S)-10-[(3-Amino-2,3,6-trideoxy-L-lyxohexopyranosyl)oxy]-7,8,9,10-tetrahydro-6,8,11-trihydroxy-8-(hydroxyacetyl)-1-methoxynaphthacene-5,12-dione hydrochloride, reference compound] | > 40% | suppressed | decrease | myocardial structural disarray, and microfibrillar disruption and disorganization | 8.6 |  |  |  |  |  |
| GDF15: commercially available recombinant human GDF-15 protein (PeproTech 120-28C), CHO cell-derived, SEQ ID NO: 1 |  |  |  |  |  | performed similarly to dexrazoxane | 12.8±1.7% | improved | similarly improved | reduced extent of cardiomyocyte death by apoptosis |
